Values after ≈ are worked out from the molar mass of the structure shown.
How the values were obtained:
[1] = test system: methicillin-sensitive Staphylococcus aureus; test: MIC by broth micro-dilution (CLSI), methicillin-sensitive S. aureus; assay type: cell-based; conditions: Staphylococcus aureus, ATCC 29213 / MSSA, MSSA S. aureus ATCC29213; read-out: MIC
[2] = test system: carbapenem sensitive Escherichia coli; test: MIC by broth micro-dilution (CLSI), carbapenem sensitive E. coli; assay type: cell-based; conditions: Escherichia coli, ATCC25922, ESBL −ve E. coli ATCC25922; read-out: MIC
[3] = test system: extended spectrum β lactamase (ESBL) SHV18 producing Klebsiella pneumoniae; test: MIC by broth micro-dilution (CLSI), ESBL SHV18 producing K. pneumoniae; assay type: cell-based; conditions: Klebsiella pneumoniae, ATCC700603, 22 h, ESBL +ve (SHV-18) K. pneumoniae ATCC700603; read-out: MIC
[4] = test system: carbapenemase producing K. pneumoniae; test: MIC by broth micro-dilution (CLSI), carbapenemase producing K. pneumoniae; assay type: cell-based, Klebsiella pneumoniae; conditions: Klebsiella pneumoniae, ATCCBAA1705, KPC-2 K. pneumoniae ATCC BAA-1705; read-out: MIC
[5] = test system: carbapenem sensitive Pseudomonas aeruginosa; test: MIC by broth micro-dilution (CLSI), carbapenem sensitive P. aeruginosa; assay type: cell-based; conditions: Pseudomonas aeruginosa, ATCC27853, Meropenem susceptible P. aeruginosa ATCC27853; read-out: MIC

Row | SMILES | MIC [1] | MIC [2] | MIC [3] | MIC [4] | MIC [5]
1 | COCc1cn([C@H](C)[C@H]2C(=O)N3C(C(=O)O)=C(S[C@@H]4CN[C@H](C(=O)N(C)C)C4)[C@H](C)[C@H]23)nn1 [Example 233] | 4 µg/mL (≈ 8.36 µM) | 1 µg/mL (≈ 2.09 µM) | 4 µg/mL (≈ 8.36 µM) | 4 µg/mL (≈ 8.36 µM) | > 128 µg/mL
2 | COCc1cn([C@H](C)[C@H]2C(=O)N3C(C(=O)O)=C(S[C@@H]4CN[C@H](CNS(N)(=O)=O)C4)[C@H](C)[C@H]23)nn1 [Example 234] | 0.5 µg/mL (≈ 0.97 µM) | 0.5 µg/mL (≈ 0.97 µM) | 4 µg/mL (≈ 7.76 µM) | 4 µg/mL (≈ 7.76 µM) | > 128 µg/mL
3 | CNCC(=O)N[C@H](C)[C@H]1C(=O)N2C(C(=O)O)=C(S[C@@H]3CN[C@H](C(=O)N4CCN(C(=N)N)CC4)C3)[C@H](C)[C@H]12 [Example 361, (4R,5S,6R)-3-((3S,5S)-5-(4-carbamimidoylpiperazine-1-carbonyl)pyrrolidin-3-ylthio)-4-methyl-6-((R)-1-(2-(methylamino)acetamido)ethyl)-7-oxo-1-azabicyclo[3.2.0]hept-2-ene-2-carboxylic acid] | 8 µg/mL (≈ 14.9 µM) | 1 µg/mL (≈ 1.86 µM) | 4 µg/mL (≈ 7.45 µM) | 2 µg/mL (≈ 3.73 µM) | 2 µg/mL (≈ 3.73 µM)

Source: patent publication US11180504B2 (ORCHID PHARMA LTD., priority 2016, dated 2021)
